Test results from EP3720857B1, “2-OXO-5H-CHROMENO[4,3-B]PYRIDINES FOR USE IN THE TREATMENT OF HEPATITIS B” (Galapagos NV, priority 2017, dated 2019).

These compounds were tested on hepatitis virus B (HBV) infection (assay: HepG2 NTCP assay (HBcAg staining as marker of HBV infection)). Settings: HepG2-NTCP cells infected with HBV, HBV core antigen (HBcAg) as marker of infection.
Assay type: cell-based
Source text: The principle of the hepG2-NTCP assay is to measure the effect of a test compound on the inhibition of the hepatitis virus B (HBV) infection compared to a reference compound. To be able to infect the hepatocellular carcinoma cells (HepG2) with HBV, HepG2 cells were stably transfected with the Na+-taurocholate co-transporting polypeptide (NTCP) receptor, also referred to as Sodium/bile acid cotransporter (SLC10A1), which is necessary for HBV infection. In this assay the HBV core antigen (HBcAg) is used as a marker of HBV infection. Nuclei count is used as an indication for compound toxicity.
On day one, HepG2-NTCP cells ((Ni et al., 2014)) are seeded at 5000 cells in 50 µL per well in assay medium (DMEM high glucose supplemented with 10% non-heat inactivated (non HI) fetal bovine serum (FBS), 1% P/S, 1% L-glutamine and 1% MEM NEAA) in 384 well plate and incubated at 37°C, 5% CO2 overnight.
Compounds are prepared as 10 point serial dilutions using 1/3 dilution steps in 100% DMSO starting from 10 mM highest concentration, unless otherwise requested for very potent compounds, which started from 5mM or 1mM stock. Compounds are further diluted 1/500 in assay medium.
A negative control (vehicle: 24 wells with 0.2% DMSO) and positive control (24 wells with 100nM Myrcludex B (Cas no.: 406461-66-3), 0.2% DMSO and in 10 point DR) are included in the experiments.
On the second day, 40µl medium is removed from the cells with the plate washer (Select 405 microplate washer, Biotek). 15 µL of diluted compound series is transferred to the assay plate and cells are infected with 15 µL of HBV mix (HBV virus, 4%PEG, 1%DMSO in assay medium). The infection is performed in assay medium containing final concentration of 1% DMSO. The assay plate is incubated at 37°C, 5% CO2 overnight.
The next day, 30µl compound and HBV mix are removed from the assay plate with the plate washer and 30 µL of compound series diluted 1/500 in assay medium containing final concentration of 2.5% DMSO is added to the cell assay plate. The assay plate is incubated at 37°C, 5% CO2 for 5 days.
After 5 days of incubation, supernatant is removed from the cells with the plate washer. Cells are fixed with 50 µL of 3.7% formaldehyde added with the Well mate (Matrix technologies) and incubated for 30 min at room temperature. After fixation, cells are washed four times with phosphate buffer saline (1xPBS, 137mM NaCl, 10mM na2HPO4, 2.7mM KCl, 1.8mM KH2PO4 at pH7.4). The cells are finally subjected to HBc staining.
First, the assay plate is blocked with blocking buffer (2%FBS, 3% BSA, 0.2% TritonX100 in PBS) for 1 h at room temperature (optional to block overnight at 4°C).
After 4 washes of PBST (1XPBS + 0.05% Tween) with the plate washer, the assay plate is incubated with 30 µL diluted primary antibody (1/700 Rabbit anti-HBV core antigen, Dako, B0586 or 1/350 Rabbit anti HBV core antigen, Invitrogen, PA516368) in blocking buffer and incubated for 90 min at room temperature.
After 4 washes of PBST with the plate washer, the assay plate is incubated with 50 µL of secondary antibody (Donkey-anti-rabbit Alexa 488 antibody, Lifetechnologies A21206) 1/500 diluted in blocking buffer and incubated for 60 min at room temperature and in the dark.
The assay plate is washed 4 times with PBST on the plate washer and incubated with 50µL of DAPI (Sigma D9542, stock 5mg/mL) 1/10000 diluted in PBS for 15-30 min at room temperature and in the dark. The assay plate is now ready for read out on the InCell Analyzer 2200 (GE Healthcare).
Raw data are generated following read-out performed on InCell 2200 and are imported into the galapagos LIMS for automated calculation of percentage inhibition (PIN) and toxicity by nuclei count, using the control wells mentioned above, and creation of Dose Response curves. Table V. Hepg2 NTCP assay activity of illustrative compounds of the invention

SMILES | IC50 [nM]
O=C(O)c1cc2c(n(C3CC3)c1=O)-c1cc(Cl)c(Cl)cc1OC2 [Compound 61, 8,9-dichloro-1-cyclopropyl-2-oxo-5H-chromeno[4,3-b]pyridine-3-carboxylic acid] | 1 to 20
COCCCOc1cc2c(cc1S(C)(=O)=O)-c1c(cc(C(=O)O)c(=O)n1C1CC1)C(C(C)C)O2 (stereo not shown) [Compound 63, 1-cyclopropyl-5-isopropyl-8-(3-methoxypropoxy) -9-methylsulfonyl-2-oxo-5H-chromeno[4,3-b]pyridine-3-carboxylic acid] | 1 to 20
CC(C)C1Oc2cc(OCC3COC3)c(F)cc2-c2c1cc(C(=O)O)c(=O)n2C1CC1 (stereo not shown) [Compound 64, 1-cyclopropyl-9-fluoro-5-isopropyl-8-(oxetan-3-ylmethoxy)-2-oxo-5H-chromeno[4,3-b]pyridine-3-carboxylic acid] | 1 to 20
COc1cc2c(cc1Cl)-c1c(cc(C(=O)O)c(=O)n1C1CC1)[C@@H](C1(C)COC1)O2 [Compound 66, (5S)-9-chloro-1-cyclopropyl-8-methoxy-5-(3-methyloxetan-3-yl)-2-oxo-5H-chromeno[4,3-b]pyridine-3-carboxylic acid] | 1 to 20
CC1(C2Oc3cc(OC[C@H]4COCCO4)c(Cl)cc3-c3c2cc(C(=O)O)c(=O)n3C2CC2)COC1 (stereo partly drawn) [Compound 69, 9-chloro-1-cyclopropyl-8-[[(2R)-1,4-dioxan-2-yl]methoxy]-5-(3-methyloxetan-3-yl)-2-oxo-5H-chromeno[4,3-b]pyridine-3-carboxylic acid] | 0.001 to 1
CC1(C2Oc3cc(OC(F)F)c(Cl)cc3-c3c2cc(C(=O)O)c(=O)n3C2CC2)COC1 (stereo not shown) [Compound 70, 9-chloro-1-cyclopropyl-8-(difluoromethoxy)-5-(3-methyloxetan-3-yl)-2-oxo-5H-chromeno[4,3-b]pyridine-3-carboxylic acid] | 1 to 20
COCCCOc1cc2c(cc1Br)-c1c(cc(C(=O)O)c(=O)n1C1CC1)C(C(C)C)O2 (stereo not shown) [Compound 71, 9-bromo-1-cyclopropyl-5-isopropyl-8-(3-methoxypropoxy) -2-oxo-5H-chromeno[4,3-b]pyridine-3-carboxylic acid] | 0.001 to 1
CC1(C2Oc3cc(OCC4CN(S(C)(=O)=O)C4)c(Cl)cc3-c3c2cc(C(=O)O)c(=O)n3C2CC2)COC1 (stereo not shown) [Compound 72, 9-chloro-1-cyclopropyl-5-(3-methyloxetan-3-yl)-8-[(1-methylsulfonylazetidin-3-yl)methoxy]-2-oxo-5H-chromeno[4,3-b]pyridine-3-carboxylic acid] | 1 to 20
COc1cc2c(cc1OC)-c1c(cc(C(=O)O)c(=O)n1C1CC1)C(CSC)O2 (stereo not shown) [Compound 74, 1-cyclopropyl-8,9-dimethoxy-5-(methylsulfanylmethyl)-2-oxo-5H-chromeno[4,3-b]pyridine-3-carboxylic acid] | > 100

The remaining lines, values ahead:

IC50 [nM] | SMILES
0.001 to 1 | COCCCOc1cc2c(cc1Cl)-c1c(cc(C(=O)O)c(=O)n1C1CC1)C(C1(C)COC1)O2 (stereo not shown) [Compound 2, 9-chloro-1-cyclopropyl-8-(3-methoxypropoxy)-5-(3-methyloxetan-3-yl)-2-oxo-5H-chromeno[4,3-b]pyridine-3-carboxylic acid]
0.001 to 1 | COCCCOc1cc2c(cc1C(F)(F)F)-c1c(cc(C(=O)O)c(=O)n1C1CC1)C(C(C)C)O2 (stereo not shown) [Compound 62, 1-cyclopropyl-5-isopropyl-8-(3-methoxypropoxy) -2-oxo-9-(trifluoromethyl)-5H-chromeno[4,3-b]pyridine-3-carboxylic acid]
0.001 to 1 | CC(C)C1Oc2cc(OCC3(C)COC3)c(F)cc2-c2c1cc(C(=O)O)c(=O)n2C1CC1 (stereo not shown) [Compound 65, 1-cyclopropyl-9-fluoro-5-isopropyl-8-[(3-methyloxetan-3-yl)methoxy]-2-oxo-5H-chromeno[4,3-b]pyridine-3-carboxylic acid]
0.001 to 1 | COc1cc2c(cc1Cl)-c1c(cc(C(=O)O)c(=O)n1C1CC1)[C@H](C1(C)COC1)O2 [Compound 67, (5R)-9-chloro-1-cyclopropyl-8-methoxy-5-(3-methyloxetan-3-yl)-2-oxo-5H-chromeno[4,3-b]pyridine-3-carboxylic acid]
0.001 to 1 | CC1(C2Oc3cc(OCC(F)(F)F)c(Cl)cc3-c3c2cc(C(=O)O)c(=O)n3C2CC2)COC1 (stereo not shown) [Compound 68, 9-chloro-1-cyclopropyl-5-(3-methyloxetan-3-yl)-2-oxo-8-(2,2,2-trifluoroethoxy)-5H-chromeno[4,3-b]pyridine-3-carboxylic acid]

These compounds were tested on hepatitis virus B (HBV) infection (assay: iCell hepatocytes assay, delayed assay (compounds added three days after HBV infection)). Settings: not given.
Assay type: cell-based
Description: The principle of the iCell hepatocyte 2.0 96 well assay is to evaluate the inhibitory effect of a test compound on hepatitis virus B (HBV) infection. In this assays the HBV core antigen (HBcAg) and/or extracellular antigen (HBeAg) and/or surface antigen (HBsAg) are used as a marker for HBV infection. Nuclei count may be used as an indication for compound toxicity.
In the standard assay set-up HBV infection and compound addition are performed on the same day, in the delayed assay the compounds are added three days after HBV infection. iCell hepatocytes 2.0 are human hepatocytes derived from induced pluripotent stem cells (iPSc) purchased from Cellular Dynamics international (CDI, R1027).
At day 0, iCell hepatocytes 2.0 (CDI, R1027) are thawed and seeded in collagen I coated 96well plates at 112 000c/well (100µL) in plating medium (RPMI supplemented with B27 supplement, 20 ng/mL recombinant human oncostatin M (OSM), 25µg/mL gentamicin, 0.1µM Dexamethasone and iCell medium supplement provided by CDI). Plates are incubated at 37°C, 5% CO2 and daily refreshed with plating medium for the following four days.
On day 5 and 6, plates are refreshed with 100µL maintenance medium (RPMI supplemented with B27 supplement, 25µg/mL gentamicin, 0.1µM Dexamethasone, and iCell medium supplement provided by CDI) and incubated at 37°C, 5% CO2 until the following day.
On day 7 (day of infection), the maintenance medium is removed from the assay plates and cells are infected with 50 µL of HBV mix (HBV virus, 4% PEG, 0% or 2% DMSO in maintenance medium). The assay plates were incubated overnight at 37°C, 5% CO2.
At day 1 post infection (day8), 50µL of HBV mix is removed from the assay plates and refreshed with 100 µL of maintenance medium. The assay plates are incubated at 37°C, 5% CO2 for three days.
At day 4 post infection (day 11) and day 7 post infection (day14), the supernatant is removed and 100 µL of compound series diluted 1/500 in maintenance medium is added to the assay plates (8 point serial dilution using 1/3 dilution steps in 100% DMSO or 8 point serial dilution using ¼ dilution steps, normalized for 0.2% DMSO. The assay plates were incubated at 37°C, 5% CO2 for three days.
At day 10 post infection (day 17), 100µL of supernatant is harvested and frozen to -20°C. The cells are fixed with 50 µL of 3.7% formaldehyde and incubated for 30 min at room temperature. After fixation, cells are washed four times with phosphate buffer saline (PBS) with the plate washer (Select 405, microplate washer, Biotek) and subjected to HBc staining. harvested supernatant is used for HBe and/or HBs ELISA.
The assay plates are blocked with blocking buffer (2% FBS, 3% BSA, 0.2% TritonX100 in PBS) for 1 h at room temperature.
After blocking, the assay plates are tapped manually and incubated with 50 µL diluted primary antibody (1/700 Rabbit-anti-HBc Ag, Dako, B0586 or 1/350 Rabbit-anti-HBc Ag, Invitrogen, PA516368) in blocking buffer and incubated for 90 min at room temperature.
After 4 washes of PBST (1XPBS + 0.05% Tween) with the plate washer, the assay plates are incubated with 100 µL of secondary antibody (Donkey-anti-rabbit Alexa 488, Lifetechnologies, A21206) 1/500 diluted in blocking buffer and incubated for 60 min at room temperature in the dark, then washed 4 times with PBST on the plate washer and incubated with 100µL of DAPI (Sigma D9542, stock 5mg/mL) 1/10000 diluted in PBS for 15-30 min at room temperature in the dark.
Finally, the assay plates are read out on a InCell Analyzer 2200 (GE Healthcare). […]
After blocking, 30 µL of sample and HBe Ag standard (recombinant hepatitis B virus E antigen protein, 4mg/mL, Abcam, ab91273) are added to the plate. The HBe Ag standard is 1/3 diluted in blocking buffer starting from 1.25µg/mL. A vehicle control is also included. The plate is incubated for 30 min at room temperature.
After sample incubation, the plates are washed 4 times with PBST on a platewasher followed by 2 washed of PBS. […]

SMILES | Delayed assay HBs ELISA % inhibition
COCCCOc1cc2c(cc1Cl)-c1c(cc(C(=O)O)c(=O)n1C1CC1)C(C1(C)COC1)O2 (stereo not shown) [Compound 2, 9-chloro-1-cyclopropyl-8-(3-methoxypropoxy)-5-(3-methyloxetan-3-yl)-2-oxo-5H-chromeno[4,3-b]pyridine-3-carboxylic acid] | ++ (50-75%)

Same assay, conditions: Hepatitis B virus, Hepatocyte, HBs ELISA

SMILES | EC50 [nM]
COCCCOc1cc2c(cc1Cl)-c1c(cc(C(=O)O)c(=O)n1C1CC1)C(C1(C)COC1)O2 (stereo not shown) [Compound 2, 9-chloro-1-cyclopropyl-8-(3-methoxypropoxy)-5-(3-methyloxetan-3-yl)-2-oxo-5H-chromeno[4,3-b]pyridine-3-carboxylic acid] | 0.001 to 20
